Key:
Type in all cases: cell-based
BW lymphoma cells = assay: 35S-Methionine Incorporation (protein synthesis), BW; settings: Mus musculus; for activity at 1 µg/mL: 1 μg/mL; for activity at 10 µg/mL: 10 μg/mL
Text: 3) ^35 S-Methionine Incorporation Test as described by Sorenson, C. M., Barry, M. A., Eastman, A. J. Natl. Canc. Inst. 1990, 82, 749. The results are expressed as percent ^35 S-methionine incorporation relative to an untreated control:
[% ^35 S-methionine incorporation]=[cpm agent treated cells]/[cpm
where cpm=counts per minute. Treatments resulting in [% ^35 S-methionine incorporation] of <50% are considered active.
The ^35 S-methionine incorporation test therefore measures protein synthesis. Activity in this bioassay could arise from inhibition of transcription and/or translation.
In this test, BW and LK lymphoma cells were treated with the preferred purified active agent at 1 μg/mL and 10 μg/mL for comparison with an untreated control. The treated cells were split into two groups, one of which was thoroughly washed to remove the preferred purified active agent prior to incubation with ^35 S-methionine.

[1] = test system: RDM-4 cells (type T lymphoma); assay: Trypan Blue cell viability, RDM-4; settings: Mus musculus, read-out: Trypan Blue Cell Viability (%)
Text: (§1) 1) The Trypan Blue Dye Exclusion Test for monitoring ceil viability as described by Phillips, H. J., in Tissue Culture Methods and Applications; Kruse, P. F., Jr., Patterson, M. K., Eds.; Academic Press, New York, 1973, 406, and by Wu, Y. W., Chik, L. L., Knazek, R. A. Cancer Research 1989, 49, 3754. The results of this assay are expressed as a percentage of viable cells:
(§2) [% viable cells]=[no. of alive cells]/[total no. of cells]×100
(§3) where the total no. cells=dead cells+alive cells. The results are compared directly with an untreated control, which typically show a three-to-four-fold increase for cancer cells, and a two-fold increase for normal cells. Treatments resulting in [% viable cells] of <30% are considered cytotoxic. Therefore, the trypan blue dye exclusion test was used to assess the number of dead and alive cells using various cell lines upon treatment with the crude and purified agent. This test provides a simple clue to the acute or late onset of a cytotoxic response. Readings for this and all other in vitro assays were taken 48 hours after treatment with the unpurified agent, and also […] after treatment for the purified agent. Thus, the trypan blue dye exclusion assay functions to confirm whether or not the cells were viable at the time readings were taken for other bioassays.
(§4) The final in vitro assays performed with the preferred purified active agent were intended to examine the scope of the activity in the trypan blue assay against a wider range of tumor cell lines (Tables 10 and 11). These cell lines included a […] lymphoma BW8767, a BW mutant which is more resistant than the BW cell lines used in other assays, as evidenced by the results in Tables 10 and 11.

[2] = test system: CT26 cells (colon adenocarcinoma); assay: Trypan Blue cell viability, CT26; settings: Mus musculus, CT26, read-out: Trypan Blue Cell Viability (%)
Text: as §1, §2, §3, §4

[3] = test system: BW8767 cells (BW resistant mutant); assay: Trypan Blue cell viability, BW8767; settings: Mus musculus, read-out: Trypan Blue Cell Viability (%)
Text: as §1, §2, §3, §4

P815 cells (mastocytoma) = assay: 3H-Thymidine Incorporation, P815; settings: Mus musculus, read-out: 3H-Thymidine Incorporation (DNA Synthesis) Inhibition (%)
Text: (§5) 2) The ^3 H-Thymidine Incorporation Test as described by Ju, S. T., Dorf, M. E. J. Immunol. 1985, 134, 3722. This test was used for monitoring cellular proliferation by monitoring DNA synthesis. The results are expressed as percent ^3 H-thymidine incorporation relative to an untreated control:
(§6) [% ^3 H-thymidine incorporation]=[cpm agent treated cells]/[cpm
(§7) where cpm=counts per minute. Treatments resulting in [% ^3 H-thymidine incorporation] of <50% are considered active.
(§8) The ^3 H-thymidine incorporation assay therefore measures the amount of DNA synthesis when the cells are in the "S" phase of the cell cycle, and is used to assess cell proliferation. Cancer cells, which have a very rapid cell cycle turnover, normally incorporate large amounts of tritium (^3 H) unless inhibited by an exogenous agent. […] While the trypan blue dye exclusion test is an indicator of cell death, the ^3 H-thymidine incorporation test indicates a cytostatic status (not necessarily cytotoxic) of the cell. As previously noted, this latter test was the primary screen used to guide the isolation to the active agent.

[4] = test system: RDM-4 cells (type T lymphoma); assay: 3H-Thymidine Incorporation, RDM-4; settings: Mus musculus, read-out: 3H-Thymidine Incorporation (DNA Synthesis) Inhibition (%)
Text: as §5, §6, §7, §8, §4

C7 cloned T-cells = assay: 3H-Thymidine Incorporation, C7; settings: Mus musculus, T-cell, read-out: 3H-Thymidine Incorporation (DNA Synthesis) Inhibition (%)
Text: as §5, §6, §7, §8
Each of these three fractions were then tested in the trypan blue and ^3 H-thymidine incorporation assays along with the original CsA as a control, against the LS cell line, which was the most sensitive of the cancer lines (Tables 3 and 4). […] The results of the trypan blue and ^3 H-thymidine incorporation assays against the three cell lines are compiled in Tables 5a-5f.

`CC1=C2C(=O)C=C(CO)[C@@H]2[C@H]2OC(=O)[C@@H](C)[C@@H]2[C@@H](O)C1` [11β,13-dihydrolactucin, 3,6-dimethyl-4-hydroxy-9-hydroxymethyl-3,3a,4,5,9a,9b-hexahydroazuleno[4,5-b]furan-2,7-dione] gave an activity at 1 µg/mL (BW lymphoma cells; BW (washed)) of 100%, an activity at 10 µg/mL (BW lymphoma cells; BW (washed)) of 100% and an activity at 1 µg/mL (BW lymphoma cells; BW, unwashed) of 10%. For the same compound, the activity at 10 µg/mL (BW lymphoma cells; BW, unwashed) was 2%, the viability at 0.1 µg/mL [1] was 100% and the viability at 0.5 µg/mL [1] was 100%. It also gave a viability at 1 µg/mL [1] of 100%, a viability at 10 µg/mL [1] of 90% and a viability at 0.1 µg/mL [2] of 100%. The viability at 0.5 µg/mL [2] was 100%, the viability at 1 µg/mL [2] was 100% and the viability at 10 µg/mL [2] was 100%. For the same compound, the viability at 0.1 µg/mL [3] was 100%, the viability at 0.5 µg/mL [3] was 100% and the viability at 1 µg/mL [3] was 100%. For the same compound, the viability at 10 µg/mL [3] was 100%, the inhibition at 0.1 µg/mL (P815 cells (mastocytoma); 0.1 μg/mL) was 100% and the inhibition at 0.5 µg/mL (P815 cells (mastocytoma); 0.5 μg/mL) was 100%. The inhibition at 1 µg/mL (P815 cells (mastocytoma); 1.0 μg/mL) was 50%, the inhibition at 10 µg/mL (P815 cells (mastocytoma); 10 μg/mL) was 36% and the inhibition at 0.1 µg/mL ([4]; 0.1 μg/mL) was 100%. It also gave an inhibition at 0.5 µg/mL ([4]; 0.5 μg/mL) of 100%, an inhibition at 1 µg/mL ([4]; 1.0 μg/mL) of 80% and an inhibition at 10 µg/mL ([4]; 10 μg/mL) of 60%. The inhibition at 0.1 µg/mL (C7 cloned T-cells; 0.1 μg/mL) was 100%, the inhibition at 0.5 µg/mL (C7 cloned T-cells; 0.5 μg/mL) was 100% and the inhibition at 1 µg/mL (C7 cloned T-cells; 1.0 μg/mL) was 100%. For the same compound, the inhibition at 10 µg/mL (C7 cloned T-cells; 10 μg/mL) was 75%.
